Reference: patent EP2623098B1, “Amide Amino Acid Esters of Nonsteroidal Anti-Inflammatory Drugs (NSAIDs) as Potent Inhibitors of Tumor Cell Growth” (King Saud University, priority 2012, dated 2013)

Test system: HT-29 human colon adenocarcinoma cells
Test: Tumor cell growth inhibition assay (Cell Titer Glo, cell viability), HT-29
Assay type: cell-based
Conditions: HT-29 cells, 72 hours treatment
Protocol: The human colon adenocarcinoma cell lines were obtained from ATCC and grown under standard cell culture conditions in RPMI 1640 medium containing 5% fetal bovine serum (FBS) at 37°C in a humidified atmosphere with 5% CO2.
Tissue culture treated 96-well microtiter plates were seeded at a density of 5,000 cells/well. For growth inhibition assays, cells were incubated at 37°C for 18-24 hours, treated with the specified compound or vehicle (0.1% DMSO final) control, and incubated at 37°C an additional 72 hours. The effect of treatment on cell viability was determined using the luminescent Cell Titer Glo Assay (Promega).
HT-29 human colon adenocarcinoma cells were treated with compounds of the invention and grown under standard cell culture conditions. […]

| Structure (SMILES) | IC50 [µM] |
| --- | --- |
| CCOC(=O)C(CCSC)NC(=O)C(C)c1ccc2cc(OC)ccc2c1 (centres unmarked) [XII] | 49.3 |
| CCOC(=O)CCNC(=O)C(C)c1ccc2cc(OC)ccc2c1 (centres unmarked) [IV] | 123 |
| COC(=O)CC(NC(=O)C(C)c1ccc2cc(OC)ccc2c1)C(=O)OC (centres unmarked) [IX] | 121 |

Stronger by IC50, values ahead:

| IC50 [µM] | Structure (SMILES) |
| --- | --- |
| 34.5 | COC(=O)C(CC(C)C)NC(=O)C(C)c1ccc2cc(OC)ccc2c1 (centres unmarked) [VII] |
| 29.4 | CCOC(=O)C(NC(=O)C(C)c1ccc2cc(OC)ccc2c1)C(C)C (centres unmarked) [XI] |
